Data published in ChEMBL document CHEMBL1201862, “PubChem BioAssay data set” (2004).
The source made the active and inactive calls.

Legend:
[1] = inhibitors of non-replicating M. tuberculosis, dose response, luciferase, dry powder (AID 651619); format: functional; conditions: Mycobacterium tuberculosis
[2] = inhibitors of non-replicating M. tuberculosis, dose response, luciferase, dry powder (AID 651620); format: functional; conditions: Mycobacterium tuberculosis
[3] = HeLa cell viability loss – plate reader, dry powder, cytotoxicity control, dose response (AID 651946); format: functional, cell-based
[4] = HepG2 hepatoma cell viability loss – plate reader, dry powder, cytotoxicity control, dose response (AID 651947); format: functional, cell-based
[5] = molecular target: NAD-dependent protein deacylase sirtuin-5, mitochondrial (Homo sapiens, UniProt Q9NXA8); assay: blockers of sirtuin-5 peptide desuccinylation – biochemical, fluorescence imaging, cherry-pick, set 6, dose response (AID 720597)
NAD-dependent protein deacylase sirtuin-5, mitochondrial, sequence (Q9NXA8 whole entry): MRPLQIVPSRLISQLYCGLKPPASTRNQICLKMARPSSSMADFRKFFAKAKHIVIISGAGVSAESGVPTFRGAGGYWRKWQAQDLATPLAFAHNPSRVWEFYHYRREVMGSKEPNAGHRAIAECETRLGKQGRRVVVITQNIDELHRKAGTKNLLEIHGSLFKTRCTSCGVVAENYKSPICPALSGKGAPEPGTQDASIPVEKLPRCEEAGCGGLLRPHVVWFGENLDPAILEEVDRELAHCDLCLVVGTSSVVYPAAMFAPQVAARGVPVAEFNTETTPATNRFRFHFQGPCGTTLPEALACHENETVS

[6] = viability loss in HEK293T cells – cell-based, CellTiter-Glo luminescence, dry powder, set 6, cytotoxicity control, dose response (AID 651949); format: functional; conditions: HEK293
[7] = A Cell-Based Confirmatory Screen for Compounds that Inhibit VEEV, TC-83 (8).; format: functional
[8] = A Cell-Based Confirmatory Screen for Compounds that Inhibit VEEV, TC-83 (5).; format: functional
[9] = Plasmodium falciparum Dd2 Sybr green parasite growth Measured in Cell-Based and Microorganism Combination System Using Plate Reader - 2153-01_Inhibitor_Dose_DryPowder_Activity_Set3.; format: functional
[10] = growth inhibition of PfATP4-mutant resistant parasites – NITD609-resistant line, SYBR Green, dry powder, dose response (AID 1159571); format: functional, cell-based;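 further: parasites synchronized at ring stage by sorbitol before testing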
[11] = growth inhibition of yeast DHODH-expressing 3D7 parasites – SYBR Green, dry powder samples, dose response (AID 1159570); format: functional, cell-based;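 further: parasite growth measured after 72 hours of compound exposure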
[12] = toxicity to human HepG2 hepatoma cells – cell-based, plate reader, dry powder samples, cytotoxicity control, dose response (AID 1159569); format: functional;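 further: inhibitor potency with signal falling toward the positive control level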
[13] = Dd2 malaria parasite growth inhibition potency – SYBR Green, dry powder samples, dose response (AID 1159566); format: functional, cell-based;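 further: potency for growth inhibition with lower SYBR green DNA signal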
[14] = P. falciparum Dd2 growth inhibitors, dose response, SYBR Green, cherry-picked samples (AID 1159567); format: functional, cell-based
[15] = Trypanosoma cruzi growth suppression in host cells – NIH3T3 host cells, beta-gal luminescence, confirmation (AID 2044); format: functional, cell-based;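 further: intracellular parasites grown in NIH/3T3 mouse fibroblasts as host cells; luminescent beta-galactosidase reporter signal from transgenic T. cruzi replicating inside host cells; inhibitors lower the luminescence signal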
[16] = molecular target: COUP transcription factor 2 (Homo sapiens, UniProt P24468); assay: Luminescence-based cell-based high throughput dose response assay to identify inhibitors of COUP-TFII (NR2F2).; format: functional;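 further: HEK293 cells transiently cotransfected with COUP-TFII expression vector and reporter; luciferase reporter luminescence driven by COUP-TFII from the pX2-168 reporter plasmid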
COUP transcription factor 2, sequence (P24468 whole entry): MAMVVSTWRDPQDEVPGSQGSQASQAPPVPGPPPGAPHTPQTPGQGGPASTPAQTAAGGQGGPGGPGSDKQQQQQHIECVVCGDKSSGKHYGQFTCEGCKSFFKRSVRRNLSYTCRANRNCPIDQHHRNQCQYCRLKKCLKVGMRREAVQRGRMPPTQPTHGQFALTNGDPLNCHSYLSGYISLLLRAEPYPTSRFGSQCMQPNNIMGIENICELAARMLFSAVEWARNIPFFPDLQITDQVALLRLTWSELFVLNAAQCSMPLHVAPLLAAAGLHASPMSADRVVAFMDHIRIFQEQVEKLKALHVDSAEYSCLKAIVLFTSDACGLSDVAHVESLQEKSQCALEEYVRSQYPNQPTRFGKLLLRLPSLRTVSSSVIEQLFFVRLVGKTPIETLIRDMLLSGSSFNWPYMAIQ

[17] = cells
[18] = NIH3T3 cell viability loss – ATP luminescence, mouse fibroblasts, counter-screen, dose response (AID 2010); format: functional, cell-based;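 further: cells exposed to compound for about 90 hours before reading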
[19] = tested on: INS1; assay: INS-1E survival protection against cytokine death – cell-based, luminescence, retest, dose response (AID 449756); format: functional; conditions: Rattus norvegicus;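 further: cell death triggered by IL-1 beta plus TNF-alpha plus IFN-gamma mixture; protective hits raise ATP signal compared with cytokine alone wells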
[20] = molecular target: Endoplasmic reticulum aminopeptidase 2 (Homo sapiens, UniProt Q6P179); assay: inhibition of ERAP2 arginine-AMC cleavage – biochemical, fluorescence plate reader, cherry-picked, set 2, selectivity assay for selective ERAP1 modulator project, dose response (AID 743320)
Endoplasmic reticulum aminopeptidase 2, sequence (Q6P179 whole entry): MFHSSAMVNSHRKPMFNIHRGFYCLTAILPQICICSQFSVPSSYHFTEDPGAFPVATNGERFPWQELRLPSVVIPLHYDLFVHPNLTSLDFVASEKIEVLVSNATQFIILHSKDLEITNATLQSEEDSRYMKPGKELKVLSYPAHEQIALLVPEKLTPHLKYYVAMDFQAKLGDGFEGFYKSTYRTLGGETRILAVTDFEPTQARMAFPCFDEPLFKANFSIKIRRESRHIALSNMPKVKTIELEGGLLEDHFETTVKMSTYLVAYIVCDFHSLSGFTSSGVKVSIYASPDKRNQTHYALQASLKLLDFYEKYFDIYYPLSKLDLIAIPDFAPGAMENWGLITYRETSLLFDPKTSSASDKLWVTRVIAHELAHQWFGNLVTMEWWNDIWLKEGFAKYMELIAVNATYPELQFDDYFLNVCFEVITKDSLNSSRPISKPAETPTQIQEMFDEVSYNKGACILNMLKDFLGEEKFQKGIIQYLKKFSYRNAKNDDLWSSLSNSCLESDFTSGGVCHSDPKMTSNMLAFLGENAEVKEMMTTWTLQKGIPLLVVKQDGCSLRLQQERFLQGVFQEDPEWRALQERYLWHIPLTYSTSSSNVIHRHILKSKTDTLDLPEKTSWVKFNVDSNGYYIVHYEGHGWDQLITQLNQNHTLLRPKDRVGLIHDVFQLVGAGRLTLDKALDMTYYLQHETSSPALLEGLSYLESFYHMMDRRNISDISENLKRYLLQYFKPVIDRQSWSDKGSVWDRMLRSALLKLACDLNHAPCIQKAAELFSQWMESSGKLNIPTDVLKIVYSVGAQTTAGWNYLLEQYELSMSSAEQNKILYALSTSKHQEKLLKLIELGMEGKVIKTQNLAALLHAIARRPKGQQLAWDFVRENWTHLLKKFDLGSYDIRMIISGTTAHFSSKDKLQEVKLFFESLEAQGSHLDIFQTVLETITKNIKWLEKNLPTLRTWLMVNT

[21] = molecular target: Endoplasmic reticulum aminopeptidase 1 (Homo sapiens, UniProt Q9NZ08); assay: inhibition of human ERAP1 enzyme activity – biochemical, cherry-pick, set 2, plate reader, dose response (AID 743314)
Endoplasmic reticulum aminopeptidase 1, sequence (Q9NZ08 whole entry): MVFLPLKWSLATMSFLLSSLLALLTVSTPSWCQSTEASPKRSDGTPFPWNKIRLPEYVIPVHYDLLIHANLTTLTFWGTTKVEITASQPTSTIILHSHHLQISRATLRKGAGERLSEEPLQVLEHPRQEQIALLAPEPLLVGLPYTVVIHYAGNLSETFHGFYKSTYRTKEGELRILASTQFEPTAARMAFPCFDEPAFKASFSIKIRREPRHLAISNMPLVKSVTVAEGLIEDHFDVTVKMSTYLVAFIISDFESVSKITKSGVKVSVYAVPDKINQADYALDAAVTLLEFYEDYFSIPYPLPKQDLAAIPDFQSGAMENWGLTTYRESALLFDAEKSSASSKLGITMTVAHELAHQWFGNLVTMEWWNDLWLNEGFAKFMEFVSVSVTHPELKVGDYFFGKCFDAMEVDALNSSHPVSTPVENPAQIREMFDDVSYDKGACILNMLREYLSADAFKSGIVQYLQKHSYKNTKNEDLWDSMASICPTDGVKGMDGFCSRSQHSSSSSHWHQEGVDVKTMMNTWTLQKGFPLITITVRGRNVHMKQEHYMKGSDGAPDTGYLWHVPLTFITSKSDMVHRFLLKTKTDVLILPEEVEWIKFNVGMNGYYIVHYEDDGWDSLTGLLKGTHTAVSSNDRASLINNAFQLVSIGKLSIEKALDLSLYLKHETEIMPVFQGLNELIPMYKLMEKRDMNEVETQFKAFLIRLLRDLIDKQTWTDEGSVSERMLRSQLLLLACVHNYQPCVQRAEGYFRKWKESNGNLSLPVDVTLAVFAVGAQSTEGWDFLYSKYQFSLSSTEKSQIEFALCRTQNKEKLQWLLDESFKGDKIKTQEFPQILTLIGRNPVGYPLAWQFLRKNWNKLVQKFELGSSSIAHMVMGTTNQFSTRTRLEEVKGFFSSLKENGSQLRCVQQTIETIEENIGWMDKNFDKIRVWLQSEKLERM

[22] = Potency on glucagon-like peptide 1 release, dose-response in NCI-H716 cell line, half maximal inhibitory concentration (AID 1117344); format: functional, cell-based
[23] = IC50 of insulin release inhibition, rat insulinoma INS-1E line, 5 mM glucose, cell-based (AID 1117331); format: functional
[24] = glucagon-like peptide-1 release potency in STC-1, concentration-response, half-maximal inhibitory concentration in the STC-1 line (AID 1117345); format: functional, cell-based

For Brc1ccc(-c2nnc(SCc3ccccn3)o2)cc1, the IC90 [1] was 4 µM (active), the IC90 [2] was 4 µM (active) and the AC50 [3] was > 52 µM (inactive). The AC50 [4] was 5.42 µM (active).

For COCCNC(=O)C[C@@H]1CC[C@H]2[C@H](COc3ccc(NC(=O)Nc4cccc(F)c4)cc3C(=O)N2C)O1, the AC50 [5] was > 30 µM (inactive).

In the case of CS(=O)(=O)c1ccc(CSc2nnc(-c3ccccc3)o2)cc1, the AC50 [4] is reported as 0.28 µM (active) and the AC50 [6] is reported as 49 µM (active).

In the case of O=c1c2cc([N+](=O)[O-])ccc2nc(CN2CCNCC2)n1-c1ccccc1, the IC50 [7] is reported as < 168 nM (active) and the IC50 [8] is reported as 150 nM (active).

In the case of CO[C@@H]1CN(C)C(=O)c2ccc(NC(=O)C3CC3)cc2OC[C@@H](C)N(Cc2cc(F)ccc2F)C[C@H]1C, the AC50 [9] is reported as 2.08 µM (active), the AC50 [10] is reported as 1.79 µM (active) and the AC50 [11] is reported as 5.77 µM (active). The AC50 [12] was 76.2 µM (active), the AC50 [13] was 957 nM (active) and the AC50 [14] was 1.22 µM (active).

With Cc1ccc(-c2cc3cccc[n+]3cc2-c2ccc(C)cc2)cc1 the EC50 [15] was < 100 nM (active), the IC50 [16] was 5.1 µM (active) and the EC50 [17] was 19 nM (active). For the same compound, the EC50 [18] was > 60 µM (not active) and the AC50 [19] was 572 nM (active).

In the case of CCC(=O)N(C)C[C@@H]1Oc2ncc(C#Cc3ccncc3)cc2C(=O)N([C@@H](C)CO)C[C@@H]1C, the AC50 [20] is reported as 17.2 µM (active) and the AC50 [21] is reported as 2.86 µM (active).

In the case of NC(=O)c1cccnc1 [NIACINAMIDE], the IC50 [22] is reported as > 40 µM (inactive), the IC50 [23] is reported as > 33.3 µM (inactive) and the IC50 [24] is reported as > 40 µM (inactive).
